According to patent publication US20050118564A1, “Methods and compositions for identification and therapeutic use of genes involved in vascular and proliferative diseases” (priority 2002, published 2005):

Key:
Type in all cases: cell-based
[1] = tested on: Human aortic endothelial cells (HAEC); assay: MCP-1 secretion by human aortic endothelial cells exposed to disease stimuli (ELISA); settings: 16 hrs, stimulus alone: 1 ng/ml TNF-α, 1 nM insulin or 100 μg/ml glycated HSA
Protocol: (§1) Human aortic endothelial cells (HAEC) were grown with culture medium (Basal medium from Clonetics) containing 0.2% albumin with or without 1 ng/ml TNF-α or 100 μg/ml glycated-human serum albumin (HAS) or 1 nM insulin for 16 hrs. Media were collected and the amounts of […] (DuoSet ELISA development kit—R&D Systems) and MCP-1 (Quantiline Human MCP-1 kit—R&D Systems) were measured. VCAM-1 expression was measured by incubating […] with a polyclonal goat anti-human VCAM-1 antibody (R&D Systems, 1:1000 dilution) followed by development with a rabbit anti-goat IgG-conjugated with horseradish peroxidase (HRP).

[2] = tested on: Human aortic endothelial cells (HAEC); assay: VCAM-1 expression in human aortic endothelial cells exposed to disease stimuli; settings: 16 hrs, 1 ng/ml TNF-α, 1 nM insulin, alone or together
Protocol: as §1

Smooth muscle cells [3] = assay: IL-6 secretion by smooth muscle cells exposed to disease stimuli; settings: 1 ng/ml TNF-α, 1 nM insulin, alone or together
Smooth muscle cells [4] = assay: MCP-1 secretion by smooth muscle cells exposed to disease stimuli; settings: 1 ng/ml TNF-α, 1 nM insulin, alone or together
[5] = tested on: Endothelial and smooth muscle cells grown together; assay: IL-6 expression in co-cultures of endothelial and smooth muscle cells; settings: endothelial and smooth muscle cells mixed (1:1, 1:2, 1:4) or layered; TNFα 1 ng/ml
Protocol: Endothelial and smooth muscle cells were grown together in culture media (Basal medium from Clonetics) containing 0.2% albumin. The cells had either nothing added, 1ng/ml TNFα, 1 nM insulin or TNFα and insulin. The media were collected and the amount of IL-6 and MCP-1 was measured.

Row | Substance | increase in MCP-1 secretion [1] | effect on VCAM-1 gene expression [2] | induction of IL-6 expression (Smooth muscle cells [3]) | induction of MCP-1 expression (Smooth muscle cells [4]) | stimulus-induced IL-6 expression in co-culture versus cells cultured separately [5]
1 | Insulin: hormone used as vascular disease stimulus, 1 nM | 40% | no effect | only moderate induction | only moderate induction | 
2 | interleukin-1: cytokine used as disease stimulus in co-cultures (FIG. 8: IL-1β) |  |  |  |  | neither interleukin-1 nor glycated albumin/advanced glycation end products (AGE) showed enhanced induction
3 | TNF-α | about 400% | 2.8 fold | only moderate induction | only moderate induction | greatly enhanced
